Laboratory results from US9469615B2, “Quinoxalines and AZA-quinoxalines as CRTH2 receptor modulators” (Merck Sharp & Dohme Corp., priority 2010, dated 2016).

target: T1, hCRTH2 (Homo sapiens, UniProt Q9Y5Y4); assay: Radioligand binding assay ([3H]PGD2 competition, HEK-hCRTH2 membranes); settings: [3H]PGD2 binding, rated A-E (Table A)
T1 construct: expressed in transfected cells; host or cells: HEK (human embryonic kidney) cells expressing hCRTH2; membrane preparation
T1 sequence (Q9Y5Y4 1-395): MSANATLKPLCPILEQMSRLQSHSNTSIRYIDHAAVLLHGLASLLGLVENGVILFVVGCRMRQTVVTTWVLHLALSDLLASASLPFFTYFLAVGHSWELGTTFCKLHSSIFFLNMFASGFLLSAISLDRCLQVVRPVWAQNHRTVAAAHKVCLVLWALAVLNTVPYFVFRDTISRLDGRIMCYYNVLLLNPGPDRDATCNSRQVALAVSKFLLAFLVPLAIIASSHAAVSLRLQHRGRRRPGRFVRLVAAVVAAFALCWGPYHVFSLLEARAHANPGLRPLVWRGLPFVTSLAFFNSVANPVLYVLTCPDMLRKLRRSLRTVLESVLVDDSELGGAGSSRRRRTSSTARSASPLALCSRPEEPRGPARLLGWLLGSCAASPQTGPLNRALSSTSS
Outline: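 Competition against 3.0 nM [3H]PGD2 was run for 60 min at room temperature in pH 7.4 Tris-HCl buffer with EDTA, 2 mM MnCl2 and 1% DMSO, using 8-20 μg HEK-hCRTH2 membrane protein. 10 μM PGD2 set non-specific binding; filter-bound counts were read by scintillation.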

Compound | Ki [nM]
CC(CCCc1nc2cc(C(=O)NCc3ccc(C#N)cc3)ccc2nc1-c1ccc(Cl)cc1)C(=O)O (stereo not drawn) [compound 164, 3-(4-chlorophenyl)-7-[[[(4-cyanophenyl)methyl]amino]carbonyl]-alpha-methyl-2-quinoxalinepentanoic acid] | 2.1 to 20
O=C(O)CCCCc1nc2cc(C(=O)N3CC(c4ccccc4)C3)ccc2nc1-c1ccc(F)cc1 [compound 173, 3-(4-fluorophenyl)--7-[(3-phenyl-1-azetidinyl)carbonyl]-2-quinoxalinepentanoic acid] | 0.1 to 2
C[C@@H]1CN(c2ccccc2)CCN1C(=O)c1ccc2nc(-c3ccccc3)c(CCCCC(=O)O)nc2c1 [compound 41, (R)-5-(7-(2-methyl-4-phenylpiperazine-1-carbonyl)-3-phenylquinoxalin-2-yl)pentanoic acid] | 2.1 to 20
O=C(O)CCCCc1nc2cc(C(=O)N[C@@H]3CCCc4cc(F)ccc43)ccc2nc1-c1ccc(F)cc1 [compound 219, 3-(4-fluorophenyl)-7-[[(6-fluoro-1,2,3,4-tetrahydro-1(R)-naphthalenyl)amino]carbonyl]-2-quinoxalinepentanoic acid] | 0.1 to 2
O=C(O)CCCCc1nc2cc(C(=O)N[C@H]3CCCc4ccccc43)ccc2nc1-c1ccc(F)cc1 [compound 218, 3-(4-fluorophenyl)-7-[[(1,2,3,4-tetrahydro-1(S)-naphthalenyl)amino]carbonyl]-2-quinoxalinepentanoic acid] | 0.1 to 2
CC(CCCc1nc2cc(C(=O)N3CCC(c4ccccc4)CC3)ccc2nc1-c1ccc(F)cc1)C(=O)O (stereo not drawn) [compound 205, 3-(4-fluorophenyl)-alpha-methyl-7-[(4-phenyl-1-piperidinyl)carbonyl]-2-quinoxalinepentanoic acid] | 2.1 to 20
CC(CCCc1nc2cc(C(=O)N(C)Cc3ccccc3)ccc2nc1-c1ccc(F)cc1)C(=O)O (stereo not drawn) [compound 212, 3-(4-fluorophenyl)-alpha-methyl-7-[[methyl(phenylmethyl)amino]carbonyl]-2-quinoxalinepentanoic acid] | 2.1 to 20

Now from value to compound:

Ki [nM] | Compound
20.1 to 200 | CN(C(=O)c1ccc2nc(-c3ccccc3)c(CCCCC(=O)O)nc2c1)C1CCOC1 (stereo not drawn) [15Bo, 5-{7-[methyl (tetrahydrofuran-3-yl)carbamoyl]-3-phenylquinoxalin-2-yl} pentanoic acid]
0.1 to 2 | O=C(O)CCCCc1nc2cc(C(=O)NC3Cc4ccccc4C3)ccc2nc1-c1ccccc1 [15BK, 5-[7-(2,3-dihydro-1H-inden-2-ylcarbamoyl)-3-phenylquinoxalin-2-yl]pentanoic acid]
2.1 to 20 | O=C(O)CCCCc1nc2cc(C(=O)N[C@H](c3ccccc3)C(F)(F)F)ccc2nc1-c1ccccc1 [15G, 5-(3-phenyl-7-{[(1R)-2,2,2-trifluoro-1-phenylethyl]carbamoyl}quinoxalin-2-yl) pentanoic acid]
2.1 to 20 | O=C(O)CCCCc1nc2cc(C(=O)N3CC(c4nc5ccccc5o4)C3)ccc2nc1-c1ccccc1 [31C]
2.1 to 20 | O=C(O)CCCCc1nc2cc(C(=O)N3CCNC(c4ccccc4)C3)ccc2nc1-c1ccccc1 (stereo not drawn) [15J, 5-{3-phenyl-7-[(3-phenylpiperazin-1-yl)carbonyl]quinoxalin-2-yl}pentanoic acid]
2.1 to 20 | O=C(O)CCCCc1nc2cc(C(=O)N3CCN(S(=O)(=O)c4ccccc4)CC3)ccc2nc1-c1ccccc1 [15o, 5-(3-phenyl-7-{[4-(phenylsulfonyl)piperazin-1-yl]carbonyl}quinoxalin-2-yl)pentanoic acid]
2.1 to 20 | COc1ccc(C2CCN(C(=O)c3ccc4nc(-c5ccccc5)c(CCCCC(=O)O)nc4c3)C2)cc1 (stereo not drawn) [15N, 5-(7-{[3-(4-methoxy-phenyl)pyrrolidin-1-yl]-carbonyl}-3-phenyl-quinoxalin-2-yl) pentanoic acid]
0.1 to 2 | O=C(O)CCCCc1nc2cc(C(=O)N3CCC(c4ccccc4)C3)ccc2nc1-c1ccc(Cl)cc1 (stereo not drawn) [16H, 3-(4-chlorophenyl)-7-[(3-phenyl-1-pyrrolidinyl)carbonyl]-2-quinoxalinepentanoic acid]
20.1 to 200 | C[C@@H](NC(=O)c1ccc2nc(-c3ccccc3)c(CCCCC(=O)O)nc2c1)c1ccccc1C(F)(F)F [15BL, 5-[3-phenyl-7-({(1R)-1-[2-(trifluoromethyl)phenyl]ethyl}carbamoyl)quinoxalin-2-yl]pentanoic acid]

same assay, conditions: [3H]PGD2 binding, values in text

Compound | Ki [nM]
O=C(O)CCCCc1nc2cc(C(=O)N3CC(c4ccccc4)C3)ccc2nc1-c1ccc(F)cc1 [compound 173, 3-(4-fluorophenyl)--7-[(3-phenyl-1-azetidinyl)carbonyl]-2-quinoxalinepentanoic acid] | 1.6
C[C@@H]1CN(c2ccccc2)CCN1C(=O)c1ccc2nc(-c3ccccc3)c(CCCCC(=O)O)nc2c1 [compound 41, (R)-5-(7-(2-methyl-4-phenylpiperazine-1-carbonyl)-3-phenylquinoxalin-2-yl)pentanoic acid] | 8.8

Further lines, results first:

Ki [nM] | Compound
16.7 | O=C(O)CCCCc1nc2cc(C(=O)N3CCN(S(=O)(=O)c4ccccc4)CC3)ccc2nc1-c1ccccc1 [15o, 5-(3-phenyl-7-{[4-(phenylsulfonyl)piperazin-1-yl]carbonyl}quinoxalin-2-yl)pentanoic acid]
69.9 | C[C@@H](NC(=O)c1ccc2nc(-c3ccccc3)c(CCCCC(=O)O)nc2c1)c1ccccc1C(F)(F)F [15BL, 5-[3-phenyl-7-({(1R)-1-[2-(trifluoromethyl)phenyl]ethyl}carbamoyl)quinoxalin-2-yl]pentanoic acid]

same assay, conditions: [3H]PGD2 competition, Table B

Ki [nM] | Compound
20.1 to 200 | O=C(O)CCCCc1nc2cc(C(=O)N3CCCC34CCc3ccncc34)ccc2nc1-c1ccc(Cl)cc1 (stereo not drawn) [compound 658, 5-(3-(4-chloro-phenyl)-7-(5,6-dihydrospiro [cyclopenta[c]pyridine-7,2′-pyrrolidin]-1′-ylcarbonyl)quinoxalin-2-yl)pentanoic acid]
201 to 700 | C[C@@H](NC(=O)c1ccc2nc(-c3ccc(F)cc3)c(CCCc3cccc(CC(=O)O)c3)nc2c1)c1ccc(F)cc1 [compound 271]
2.1 to 20 | CC1(C)Oc2ccccc2C(NC(=O)c2ccc3nc(-c4ccc(Cl)cc4)c(CCCCC(=O)O)nc3c2)C1O (stereo not drawn) [compound 696, 5-(3-(4-chlorophenyl)-7-((3-hydroxy-2,2-dimethylchroman-4-yl)carbamoyl)quinoxalin-2-yl)pentanoic acid]
0.1 to 2 | CN(Cc1ccccc1)C(=O)c1ccc2nc(-c3ccc(Cl)cc3)c(CCc3cc(F)cc(CC(=O)O)c3)nc2c1 [compound 448, 2-(3-(2-(7-(benzyl(methyl)carbamoyl)-3-(4-chlorophenyl)quinoxalin-2-yl)ethyl)-5-fluorophenyl) acetic acid]
2.1 to 20 | N#Cc1ccc(C2CN(C(=O)c3ccc4nc(-c5ccc(Cl)cc5)c(CC5CCC(C(=O)O)C5)nc4c3)C2)cc1 (stereo not drawn) [compound 400, 3-((3-(4-chlorophenyl)-7-(3-(4-cyanophenyl)azetidine-1-carbonyl)quinoxalin-2-yl)methyl)cyclopentane-carboxylic acid]
0.1 to 2 | Cc1ccc(N2CCN(C(=O)c3ccc4nc(-c5ccc(Cl)cc5)c(CCCCC(=O)O)nc4c3)CC2)c(C)c1 [compound 636, 5-(3-(4-chlorophenyl)-7-(4-(2,4-dimethylphenyl)piperazine-1-carbonyl)quinoxa1in-2-yl)pentanoic acid]
201 to 700 | O=C(O)CCCCc1nc2cc(C(=O)N3CCn4ccnc4C3)ccc2nc1-c1ccc(Cl)cc1 [compound 705, 5-(3-(4-chlorophenyl)-7-(5,6,7,8-tetrahydroimidazo[1,2-a]pyrazine-7-carbonyl)quinoxalin-2-yl)pentanoic acid]
2.1 to 20 | CC1(C)CC(NC(=O)c2ccc3nc(-c4ccccc4)c(CCCCC(=O)O)nc3c2)c2ccccc2O1 (stereo not drawn) [compound 295, 5-(7((2,2-dimethylchroman-4-yl)carbamoyl)-3-phenylquinoxalin-2-yl)pentanoic acid]
2.1 to 20 | O=C(O)CCCCc1nc2cc(C(=O)N[C@@H]3CCOc4cc(Cl)ccc43)ccc2nc1-c1ccc(Cl)cc1 [compound 334, (R)-5-(7-((7-chlorochroman-4-yl)carbamoyl)-3-(4-chlorophenyl)quinoxalin-2-yl)pentanoic acid]
2.1 to 20 | N#Cc1ccc(CNC(=O)c2ccc3nc(-c4ccc(Cl)cc4)c(CCc4cc(F)cc(CC(=O)O)c4)nc3c2)cc1 [compound 451, 2-(3-(2-(3-(4-chlorophenyl)-7-((4-cyanobenzyl)carbamoyl)quinoxalin-2-yl)ethyl)-5-fluorophenyl)acetio acid]
